From paper PMC7071032, “In Vitro Inhibition of Hsp90 Protein by Benzothiazoloquinazolinequinones Is Enhanced in The Presence of Ascorbate. A Preliminary In Vivo Antiproliferative Study” (Molecules, 2020)
Like-named read-outs stand apart in the source and are kept apart here.

Legend:
T24 (bladder) cells [1] = assay: MTT reduction assay, T24 cells; format: cell-based; settings: Homo sapiens, T-24, 48 h incubation, read-out: IC50 ± SEM T24
Protocol: (§1) As positive control, two well-known anticancer drugs, namely TAM and 5-FU, were also tested on these cell lines. […] Regarding 5-FU, it is a broad-spectrum chemotherapeutic drug used to treat a variety of malignancies. Particularly, it has a long history of use against bladder tumors.
(§2) Cell culture conditions were the same as reported elsewhere. Briefly, cell lines were kept in DMEM containing 10% fetal calf serum. In addition, 100 U/mL of penicillin and 100 µg/mL streptomycin from Gibco (Grand Island, NY, USA) were further added. Cell cultures were kept at 37 °C under an atmosphere of 95% air/5% CO2 and 100% humidity. Sodium L-ascorbate, menadione (vitamin K3), TAM, and 5-FU were purchased from Sigma (St. Louis, MO, USA).
(§3) The cytotoxicity of the quinones was assessed by following the reduction of MTT (3-(4,5-dimethylthiazol-2-yl)-2,5-diphenyltetrazolium bromide) to formazan blue and the capability of cancer cells to proliferate, namely a clonogenic assay.
(§4) Cells were seeded into 96-well plates at a density of 10,000 cells/well for 24 h and then incubated for 48 h with or without the quinone derivatives. […] The IC50 values were determined using the GraphPad Prism software (San Diego, CA, USA). Further incubation procedures and optical density reading of colored solutions were performed according to Benites et al..

DU-145 (prostate) cells [2] = assay: MTT reduction assay, DU-145 cells; format: cell-based; settings: Homo sapiens, DU-145, 48 h, read-out: IC50 ± SEM DU-145
Protocol: as §1, §2, §3, §4

MCF-7 (breast) cells [3] = assay: MTT reduction assay, MCF-7 cells; format: cell-based; settings: Homo sapiens, MCF7, 48 h incubation, read-out: IC50 ± SEM MCF-7
Protocol: as §1, §2, §3, §4

[4] = test system: non-tumor fibroblasts AG 1523; assay: MTT reduction assay, non-tumor fibroblasts; format: cell-based; settings: Homo sapiens, AG1523, 48 h incubation, read-out: IC50 ± SEM AG 1523
Protocol: as §1, §2, §3, §4

[5] = test system: panel of cancer cells (T24, DU-145, MCF-7); assay: MTT reduction assay, panel of cancer cells (means, ranges, selectivity index); format: cell-based, human; settings: for MSI: mean selective index: IC50 values of fibroblasts (AG 1523)/IC50 values of tumor cells (T24, DU-145, MCF-7); for IC50: Homo sapiens
Protocol: as §1
Such a selective index was calculated as the ratio between IC50 values of healthy cells/IC50 values in cancer cells.
as §4

T24 cells = assay: Clonogenic assay; format: cell-based, human; settings: for cell growth compared to control conditions (100%), in brackets / number of colony forming units (CFUs): T24 cells; for number of colony forming units (CFUs): 24 h treatment, 10 days growth
Protocol: Indeed, at a dose of 0.25 µM, it decreased from 195 to 72 the number of CFUs. Otherwise, it inhibits the proliferation of T24 cells by 63% as compared to the control untreated cells. […] The percentages of the observed cell growth compared to control conditions (100%) are indicated in brackets. […] Cells were allowed to adhere overnight, and then treated with quinones for 24 h. Afterward, they were washed with warm PBS, given fresh medium, and allowed to grow for 10 days. Clonogenic survival was determined by fixing and staining colonies using crystal violet and further counting their number. The number of colonies calculated under control conditions was set as 100%.

T24 (bladder) cells [6] = test system: T24 (bladder) cells; set-up: method as in doi:10.1016/j.tetlet.2015.07.034; settings: MTT, data from Valderrama et al. ref 16, read-out: IC50 ± SEM T24; cited from earlier work
DU-145 (prostate) cells [7] = test system: DU-145 (prostate) cells; set-up: method as in doi:10.1016/j.tetlet.2015.07.034; settings: read-out: IC50 ± SEM DU-145, MTT, data from Valderrama et al. ref 16; cited from earlier work
MCF-7 (breast) cells [8] = test system: MCF-7 (breast) cells; set-up: method as in doi:10.1016/j.tetlet.2015.07.034; settings: MTT, data from Valderrama et al. ref 16, read-out: IC50 ± SEM MCF-7; cited from earlier work
[9] = read-out: mean IC50 value calculated from the individual IC50 values of the three cancer cell lines
[10] = read-out: IC50 values on the panel of cancer cells (range over cell lines)

| Structure (SMILES) | IC50 (T24 (bladder) cells [1]) [µM] | IC50 (DU-145 (prostate) cells [2]) [µM] | IC50 (MCF-7 (breast) cells [3]) [µM] | IC50 [4] [µM] | MSI: mean selective index [5] | IC50 [5, 9] [µM] | also measured |
| --- | --- | --- | --- | --- | --- | --- | --- |
| CCCCCCCC1(O)C2=C(N=C3Sc4ccccc4N31)C(=O)c1ccccc1C2=O (centres unmarked) [Compound 14] | 8.42 ± 1.27 | 9.04 ± 0.69 | 6.84 ± 0.79 | 7.28 ± 0.39 | 0.90 | – | – |
| O=c1[nH]cc(F)c(=O)[nH]1 [5-Fluorouracil, 5-fluorouracil, reference compound] | – | – | – | – | – | 7.8 | – |
| CCCCCC1(O)C2=C(N=C3Sc4cc(OC)ccc4N31)C(=O)c1ccccc1C2=O (centres unmarked) [Compound 21] | 7.09 ± 0.14 | 7.43 ± 0.28 | 4.63 ± 0.3 | 11.3 ± 1.1 | 1.78 | – | – |
| O=C1C2=C(C(=O)c3ccccc31)C(O)(c1cccs1)N1C(=N2)Sc2ccccc21 (centres unmarked) [Compound 25] | 8.72 ± 0.41 | 7.85 ± 0.6 | 7.32 ± 0.36 | 12.8 ± 0.31 | 1.60 | – | – |
| CC1(O)C2=C(N=C3Sc4ccccc4N31)C(=O)c1ccccc1C2=O (centres unmarked) [Compound 11] | 4.65 ± 0.43 | 9.59 ± 0.32 | 6.83 ± 1.29 | 10.7 ± 0.57 | 1.52 | – | – |
| CCCCCC1(O)C2=C(N=C3Sc4ccccc4N31)C(=O)c1ccccc1C2=O (centres unmarked) [Compound 13] | 6.85 ± 0.54 | 7.99 ± 0.17 | 5.83 ± 0.25 | 8.55 ± 0.35 | 1.24 | – | – |
| CCCCCCCC1(O)C2=C(N=C3Sc4cc(C)ccc4N31)C(=O)c1ccccc1C2=O (centres unmarked) [Compound 18] | 5.6 ± 0.29 | 7.55 ± 0.69 | 7.12 ± 0.65 | 6.02 ± 0.29 | 0.89 | – | – |
| CCCC1(O)C2=C(N=C3Sc4cc(OC)ccc4N31)C(=O)c1ccccc1C2=O (centres unmarked) [Compound 20] | 1.89 ± 0.15 | 1.13 ± 0.05 | 1.67 ± 0.12 | 4.99 ± 0.59 | 3.17 | 1.1 to 1.61 | IC50 [5, 10]: 0.11 to 1.77 µM; cell growth compared to control conditions (100%), in brackets (T24 cells; 0.025 µM): 96%; number of colony forming units (CFUs) (T24 cells; 0.025 µM): 204 ± 17 CFUs; cell growth compared to control conditions (100%), in brackets (T24 cells; 0.125 µM): 100%; number of colony forming units (CFUs) (T24 cells; 0.125 µM): 214 ± 25 CFUs; cell growth compared to control conditions (100%), in brackets (T24 cells; 0.25 µM): 106%; number of colony forming units (CFUs) (T24 cells; 0.25 µM): 225 ± 19 CFUs; cell growth compared to control conditions (100%), in brackets (T24 cells; 1.25 µM): 55%; number of colony forming units (CFUs) (T24 cells; 1.25 µM): 118 ± 22 CFUs; cell growth compared to control conditions (100%), in brackets (T24 cells; 2.5 µM): 42%; number of colony forming units (CFUs) (T24 cells; 2.5 µM): 89 ± 10 CFUs; cell growth compared to control conditions (100%), in brackets (T24 cells; 5.0 µM): 22%; number of colony forming units (CFUs) (T24 cells; 5.0 µM): 46 ± 7 CFUs |
| O=C1C2=C(C(=O)c3ccccc31)C(O)(c1ccco1)N1C(=N2)Sc2ccccc21 (centres unmarked) [Compound 23] | 9.29 ± 0.77 | 19.9 ± 0.5 | 8.62 ± 0.72 | 21.7 ± 0.27 | 1.72 | 10.5 to 12.6 | – |
| COc1ccc2c(c1)SC1=NC3=C(C(=O)c4ccccc4C3=O)C(C)(O)N12 (centres unmarked) [Compound 19] | – | – | – | 6.4 ± 0.46 | 3.97 | 1.1 to 1.61 | IC50 [5, 10]: 0.11 to 1.77 µM; inhibition at 0.25 µM (T24 cells; Homo sapiens, T-24, clonogenic assay, 0.25 µM, read-out: inhibition of the proliferation of T24 cells as compared to control untreated cells): 28%; cell growth compared to control conditions (100%), in brackets (T24 cells; 0.025 µM): 102%; number of colony forming units (CFUs) (T24 cells; 0.025 µM): 195 ± 16 CFUs; cell growth compared to control conditions (100%), in brackets (T24 cells; 0.125 µM): 96%; number of colony forming units (CFUs) (T24 cells; 0.125 µM): 183 ± 21 CFUs; cell growth compared to control conditions (100%), in brackets (T24 cells; 0.25 µM): 72%; number of colony forming units (CFUs) (T24 cells; 0.25 µM): 138 ± 18 CFUs; cell growth compared to control conditions (100%), in brackets (T24 cells; 1.25 µM): 36%; number of colony forming units (CFUs) (T24 cells; 1.25 µM): 68 ± 12 CFUs; cell growth compared to control conditions (100%), in brackets (T24 cells; 2.5 µM): 16%; number of colony forming units (CFUs) (T24 cells; 2.5 µM): 30 ± 16 CFUs; cell growth compared to control conditions (100%), in brackets (T24 cells; 5.0 µM): 18%; number of colony forming units (CFUs) (T24 cells; 5.0 µM): 35 ± 11 CFUs; IC50 (T24 (bladder) cells [6]): 1.32 ± 0.11 µM; IC50 (DU-145 (prostate) cells [7]): 0.79 ± 0.11 µM; IC50 (MCF-7 (breast) cells [8]): 2.72 ± 0.18 µM |
| COc1ccc2c(c1)SC1=NC3=C(C(=O)c4ccccc4C3=O)C(O)(c3ccco3)N12 (centres unmarked) [Compound 24] | 10.4 ± 1 | 4.69 ± 0.33 | 11.7 ± 0.65 | 90.1 ± 1.21 | 10.1 | – | – |
| CCCC1(O)C2=C(N=C3Sc4cc(C)ccc4N31)C(=O)c1ccccc1C2=O (centres unmarked) [Compound 16] | – | – | – | 3.46 ± 0.08 | 2.62 | 1.1 to 1.61 | IC50 [5, 10]: 0.11 to 1.77 µM; cell growth compared to control conditions (100%), in brackets (T24 cells; 0.025 µM): 101%; number of colony forming units (CFUs) (T24 cells; 0.025 µM): 204 ± 19 CFUs; cell growth compared to control conditions (100%), in brackets (T24 cells; 0.125 µM): 107%; number of colony forming units (CFUs) (T24 cells; 0.125 µM): 216 ± 29 CFUs; cell growth compared to control conditions (100%), in brackets (T24 cells; 0.25 µM): 94%; number of colony forming units (CFUs) (T24 cells; 0.25 µM): 189 ± 12 CFUs; cell growth compared to control conditions (100%), in brackets (T24 cells; 1.25 µM): 39%; number of colony forming units (CFUs) (T24 cells; 1.25 µM): 79 ± 9 CFUs; cell growth compared to control conditions (100%), in brackets (T24 cells; 2.5 µM): 29%; number of colony forming units (CFUs) (T24 cells; 2.5 µM): 58 ± 12 CFUs; cell growth compared to control conditions (100%), in brackets (T24 cells; 5.0 µM): 11%; number of colony forming units (CFUs) (T24 cells; 5.0 µM): 23 ± 15 CFUs; IC50 (T24 (bladder) cells [6]): 1.36 ± 0.15 µM; IC50 (DU-145 (prostate) cells [7]): 0.85 ± 0.1 µM; IC50 (MCF-7 (breast) cells [8]): 1.77 ± 0.26 µM |
| CCCCCCCC1(O)C2=C(N=C3Sc4cc(OC)ccc4N31)C(=O)c1ccccc1C2=O (centres unmarked) [Compound 22] | 5.95 ± 0.45 | 6.62 ± 0.19 | 3.52 ± 0.32 | 5.97 ± 0.24 | 1.11 | – | – |
| CCCC1(O)C2=C(N=C3Sc4ccccc4N31)C(=O)c1ccccc1C2=O (centres unmarked) [Compound 12] | – | – | – | 8.82 ± 0.27 | 1.28 | – | IC50 (T24 (bladder) cells [6]): 4.86 ± 0.5 µM; IC50 (DU-145 (prostate) cells [7]): 11.6 ± 2.05 µM; IC50 (MCF-7 (breast) cells [8]): 4.25 ± 0.5 µM |
| O=C1C2=C(C(=O)c3ccccc31)C(O)(c1cccs1)N1C(=N2)Sc2cc(F)ccc21 (centres unmarked) [Compound 26] | 13.4 ± 2.37 | 10.8 ± 1.01 | 7.46 ± 0.53 | 19.8 ± 0.83 | 1.88 | 10.5 to 12.6 | – |
